# Assay results: patent EP3744729B1, “PEPTIDES, COMPOSITIONS COMPRISING THEM AND COSMETIC AND DERMOPHARMACEUTICAL USES” (SEDERMA, priority 2009, dated 2023)
# Where a SMILES comes first, the peptide text is derived from it. [ ]: non-standard residue; d: D form. The star is where a group is joined. Met(O2) = CS(=O)(=O)CC[C@H](N)C(=O)O; Palmitoyl = CCCCCCCCCCCCCCCC(=O)*
# Legend:
# dermal NHF = assay: Immunostaining method on dermal NHF: collagen I (Table 7, Test 2); type: cell-based, human; conditions: % difference compared to the control
# Description: Table 7 showing % differences in collagen I in the dermis compared to the control for dioxygenated peptide compounds according to the immunostaining method or to ELISA test on dermal NHF
# [1] = tested on: normal human dermal fibroblasts (NHF); assay: ELISA test on normal human dermal fibroblasts (NHF): macromolecules in culture supernatant; type: cell-based; conditions: % difference compared to the control; for Collagen I in the dermis: 3 days contact; for Collagen I in the dermis Test 1: Table 7
# Description: > ELISA test on normal human dermal fibroblasts (NHF)
# This test examines the dermal molecules.
# Normal human dermal fibroblasts are cultured in multi-well plates. The cells either are or are not placed in contact with the test substances for 3 days. The culture supernatants are removed and the quantity of macromolecules present (collagen I, fibronectin, collagen IV and hyaluronic acid) is assayed by ELISA.
# Human Keratinocytes (HK) = assay: ELISA test on Human Keratinocytes (HK): macromolecules in culture supernatant; type: cell-based; conditions: epidermal HK, % difference compared to the control
# Description: > ELISA test on Human Keratinocytes (HK)
# This test examines epidermal molecules.
# Human keratinocytes are cultured in multi-well plates. The cells either are or are not placed in contact with the test substances for 3 days. The culture supernatants are removed and the quantity of macromolecules present (fibronectin, laminins and hyaluronic acid) is assayed by ELISA.
# [2] = tested on: normal human dermal fibroblasts (NHF); assay: Immunofluorescence (IMF) on normal human dermal fibroblasts (NHF): collagen III; type: cell-based; conditions: 5 ppm peptide
# Description: > Immunofluorescence (IMF) on normal human dermal fibroblasts (NHF)
# This test examines dermal molecules.
# Norman human fibroblasts are cultured in plates. The cells either are or are not placed in contact with the test substances for […]. The cell layers are then labeled with antibodies specifically recognizing collagen III. Photographs were used to reveal and quantify the synthesis of collagen III.
# [3] = Table 5, ELISA, 5 ppm peptide, no plant
structure (smiles),measurement,setting,value
CCCCCCCCCCCCCCCC(=O)N[C@@H](CCCCN)C(=O)N[C@@H](CCS(C)(=O)=O)C(=O)N[C@@H](CCCCN)C(=O)O [Pal-KMO2K-OH] (Palmitoyl-Lys-[Met(O2)]-Lys-OH),Collagen I in the dermis Test 2,dermal NHF; 2 ppm,+329%
same,Collagen I in the dermis Test 2,dermal NHF; 4 ppm,+423%
same,Collagen I in the dermis Test 2,dermal NHF; 5 ppm,+486%
same,Coll. I,[1]; 4 ppm peptide,+188%
same,Coll. IV,[1]; 4 ppm peptide,+27%
same,Collagen I in the dermis,[1]; 4 ppm peptide,+188%
same,Coll. I,[1]; 6 ppm peptide,+187%
same,Coll. IV,[1]; 6 ppm peptide,+97%
same,Collagen I in the dermis,[1]; 6 ppm peptide,+187%
same,Coll. I,[1]; [3],+111%
same,Coll. IV,[1]; [3],+42%
same,Fibronectin,[1]; [3],+59%
same,Hyaluronic acid,[1]; [3],≈0%
same,Collagen I in the dermis Test 1,[1]; 4 ppm,+188%
same,Collagen I in the dermis Test 1,[1]; 6 ppm,+187%
same,Fibronectin,"[1]; dermal NHF, 4 ppm peptide",+42%
same,Hyaluronic acid,"[1]; dermal NHF, 4 ppm peptide",≈0%
same,Fibronectin,"[1]; dermal NHF, 6 ppm peptide",+109%
same,Hyaluronic acid,"[1]; dermal NHF, 6 ppm peptide",+55%
same,Hyaluronic acid,"Human Keratinocytes (HK); Table 6, 2 ppm peptide, no plant",+44%
same,Hyaluronic acid,"Human Keratinocytes (HK); Table 6, 4 ppm peptide, no plant",+139%
same,Hyaluronic acid,"Human Keratinocytes (HK); Table 6, 5 ppm peptide, no plant",+172%
same,Hyaluronic acid,"Human Keratinocytes (HK); Table 6, 6 ppm peptide, no plant",+290%
same,Fibronectin,Human Keratinocytes (HK); 4 ppm peptide,+35%
same,Hyaluronic acid,Human Keratinocytes (HK); 4 ppm peptide,+139%
same,Laminins,Human Keratinocytes (HK); 4 ppm peptide,+30%
same,Fibronectin,Human Keratinocytes (HK); 5 ppm peptide,+65%
same,Hyaluronic acid,Human Keratinocytes (HK); 5 ppm peptide,+172%
same,Laminins,Human Keratinocytes (HK); 5 ppm peptide,+66%
same,Fibronectin,Human Keratinocytes (HK); 6 ppm peptide,+159%
same,Hyaluronic acid,Human Keratinocytes (HK); 6 ppm peptide,+290%
same,Laminins,Human Keratinocytes (HK); 6 ppm peptide,+172%
same,Coll. III,"[2]; % difference compared to the control, 35 days contact",+104%
same,Coll. III,"[2]; Table 5, % difference compared to the control, no plant",+104%
